{"source": "patent US10695371B2", "about": "“Modification of extracorporeal photopherisis technology with porphyrin precursors” (Oslo Universitetssykehus HF, priority 2014, dated 2020)", "key": {"[1]": {"tested_on": "human T-cell lymphoma cell line, Jurkat", "experiment": "In vitro cell proliferation assay (MTS) after HAL and/or 8-MOP plus light", "format": "cell-based", "conditions": "for Dark toxicity (MTS assay): no light", "protocol": "The human T-cell lymphoma cell line, Jurkat (ATCC number: TIB-152TM), growing in suspensions at passages 4-24 was used in the study. […] For subcultivation, the cells were diluted to a density of 3×10^5 cells/ml every second day. […] The cells were collected from the cultivation flasks, centrifuged at 1400 rpm for 5 min and diluted in the serum-free RPMI 1640 medium to a density of 37.5×10^5 cells/ml. Eighty microliters of cell suspension were portioned into 96 well plates. […] For the UV-A irradiation of samples, a home-made UV-A lamp (Sorensen UV-A lamp, Phillips Th […]/09) emitting light mainly in the region 340-410 nm was used (FIG. 1). For the blue light illumination of samples, the light from a bank of four fluorescent tubes (model 3026, Applied Photophysics, London, United Kingdom) emitting light mainly in the region 410-500 nm with a maximum around 440 nm was used (FIG. 1). […] Twenty four hours after irradiation, 20 μl of MTS (Promega Corporation, Madison, Wis.) was added to each well. Absorbance at 492 nm was measured after one hour incubation at 37° C. by means of a well plate reader (Multiskan Ex, Labsystems, Finland)."}, "Jurkat cells [2]": {"tested_on": "Jurkat cells", "experiment": "Assessment of apoptotic cells by fluorescence microscopy (Hoechst 33342 / PI)", "format": "cell-based, human", "protocol": "The cells were collected from the cultivation flasks, centrifuged at 1400 rpm for 5 min and diluted in the serum-free RPMI 1640 medium to a density of 37.5×10^5 cells/ml. Eighty microliters of cell suspension were portioned into 96 well plates. […] For the UV-A irradiation of samples, a home-made UV-A lamp (Sorensen UV-A lamp, Phillips Th […]/09) emitting light mainly in the region 340-410 nm was used (FIG. 1). For the blue light illumination of samples, the light from a bank of four fluorescent tubes (model 3026, Applied Photophysics, London, United Kingdom) emitting light mainly in the region 410-500 nm with a maximum around 440 nm was used (FIG. 1). Apoptotic cells were identified by fluorescence microscopy based on nuclear morphology after staining with 4.0 μg/mI Hoechst 33342 (Sigma, St. Louis, Mo.) at 37° C. for 10 min. This assay was verified in our previous experiments. […] For PI fluorescence detection, the filter combination consisted of a 540/25 nm excitation filter, a 565 nm beam splitter, and a 605/55 nm band-pass emission filter. Fluorescence images were captured by a highly light sensitive thermo-electrically cooled charge-coupled device camera […] (Hamamatsu, Japan)."}, "Jurkat cells [3]": {"tested_on": "Jurkat cells", "experiment": "In vitro long term cell survival assay in methylcellulose-based semisolid medium", "design": "species or system human", "protocol": "The cells were collected from the cultivation flasks, centrifuged at 1400 rpm for 5 min and diluted in the serum-free RPMI 1640 medium to a density of 37.5×10^5 cells/ml. Eighty microliters of cell suspension were portioned into 96 well plates. […] For the UV-A irradiation of samples, a home-made UV-A lamp (Sorensen UV-A lamp, Phillips Th […]/09) emitting light mainly in the region 340-410 nm was used (FIG. 1). For the blue light illumination of samples, the light from a bank of four fluorescent tubes (model 3026, Applied Photophysics, London, United Kingdom) emitting light mainly in the region 410-500 nm with a maximum around 440 nm was used (FIG. 1). Methylcellulose-based medium human MethoCult® with recombinant cytokines, (H4034, StemCell Technologies, France) was used for survival assay. […] The samples were treated according to the manufacturer's instructions and suspensions were transferred into 35 mm Petri dishes. They were incubated at 37° C. in a humidified incubator with 5% CO2."}, "[4]": {"tested_on": "CD4+ T lymphocytes collected from a GvHD patient", "experiment": "Ex vivo ALA-ECP killing of patient CD4+ T lymphocytes (flow cytometry)", "format": "cell-based, human", "conditions": "particularly at a low light dose, 5-min light illumination", "protocol": "(§1) A suitable dose and incubation time of ALA was used in leukocyte samples collected from ECP patients. The dark toxicity of ALA at the concentration in question was evaluated, followed by the ALA/UVA-mediated killing efficiency before studies on the mechanism of its action (apoptosis/necrosis). The lymphocytes from patients were incubated with ALA under the optimized experimental conditions before exposure to the UVA lamp in the Therakos Photopheresis System at the same light dose as used in the ECP treatment. The cell survival of ALA dark toxicity, ALA/UVA-mediated killing efficiency and apoptosis/necrosis were measured with flow cytometry using combined labelling of CD4^+ or CD8^+ with Annexin V/PI staining.\n(§2) The killing effects of 5-ALA (a porphyrin precursor) plus the UVA light irradiation on CD4^+/CD8^+ T lymphocytes collected from a Graft versus Host Disease (GvHD) patient who went to a standard photopheresis treatment was evaluated. The cells were exposed to ALA+UVA in the standard photopheresis machine, and percentage survival evaluated at various timepoints between 1 h and 20 h. The 8-MOP plus UVA used for the standard photopheresis was also included for comparison. The cell survival was measured with flow cytometry using a combined staining of CD4/CD8 antibody, Annexin-V and eFluor450."}, "[5]": {"tested_on": "Proliferative (transformed or activated) T-cells", "experiment": "ALA-induced PpIX production in proliferative versus resting T-cells", "format": "cell-based"}, "rats": {"tested_on": "rats", "conditions": "cited from earlier work"}, "[6]": {"tested_on": "Jurkat human T-cell lymphoma cells", "experiment": "ALA/UVA killing of Jurkat cells (PI staining)", "format": "cell-based", "conditions": "1 mM ALA for 1 hour, 10% foetal bovine serum, then UVA light exposure", "protocol": "Optimization of experimental conditions for ALA-ECP was performed in Jurkat cells, varying ALA concentration (1 to 5 mM) and treatment time (1 to 4 hours) in the presence of 10% foetal bovine serum. The cells were then exposed to UVA for 10 min using an UV-A lamp with almost identical emission spectra to those of the UV-A lamp used in the existing commercial Therakos photopheresis system. The cell survival after the ALA/UVA treatment was measured by fluorescence microscopy with propidium iodide (PI) staining."}, "[7]": {"tested_on": "CD8+ T lymphocytes collected from a GvHD patient", "experiment": "Ex vivo ALA-ECP killing of patient CD8+ T lymphocytes (flow cytometry)", "format": "cell-based, human", "conditions": "particularly at a low light dose, 5-min light illumination", "protocol": "as §1, §2"}, "humans": {"tested_on": "humans", "conditions": "oral ALA; normally resolves after 48 hours; cited from earlier work"}, "mice": {"tested_on": "mice", "conditions": "cited from earlier work"}, "[8]": {"tested_on": "human leukocytes from GvHD or CTLC patients", "experiment": "5-ALA dark toxicity on human leukocytes", "format": "cell-based", "conditions": "10 mM 5-ALA, 17-24 hours, no light", "quoted_text": "The general safety of 5-ALA in absence of light-mediated activation (dark toxicity) was next evaluated. Blood samples from 10 GvHD or CTLC patients were treated with 10 mM 5-ALA at 37° C. in a 5% CO2 humidified incubator overnight (17-24 hours). Buffy coat samples from patients were directly harvested from the Therakos Photopheresis System during the standard photopheresis treatment. The cells incubated with the culture medium containing no 5-ALA were also included as a control in all individuals. The leukocytes were then labelled with antibodies for flow cytometry analysis of various subpopulations. The antibodies used were: CD45 PerCP-Cyanine5.5 for leukocytes, CD4 FITC for T helper cells, CD8 FITC for T cytotoxic cells and CD19 FITC for B-cells. The cells were also labelled with Fixable Viability Dye eFluor 450 for dead cells and Annexin V for apoptotic/dead cells. The different subpopulations of leukocytes were gated out and analyzed for cell viability. The cells that were negative for both the Fixable Viability Dye eFluor 450 and Annexin V were considered as viable cells."}}, "note": "“Also recorded” adds a separate entry of the source.", "data": [{"smiles": "COc1c2occc2cc2ccc(=O)oc12", "note": "[8-MOP, 8-methoxypsoralen]", "values": [{"measurement": "ability to sensitise the cells to photoinactivation when UV-A lamp spectrum shifted by few nm", "setting": "[1]; 1.00 μM 8-MOP", "value": "significantly increased"}, {"measurement": "Effect of presence of 8-MOP on cell proliferation during HAL-based PDT with blue light", "setting": "[1]; 1.00 μM 8-MOP, blue light", "value": "did not affect cell proliferation"}, {"measurement": "Dark toxicity (MTS assay)", "setting": "[1]; 8-MOP up to 1.00 μM", "value": "no indication for dark toxicities"}, {"measurement": "cell proliferation measured by MTS assay with increasing 8-MOP concentration", "setting": "[1]; UV-A 5 and 10 min, absence of HAL", "value": "decreasing cell proliferation"}, {"measurement": "mode of cell death, twenty hours following treatment", "setting": "Jurkat cells [2]; 1.00 μM 8-MOP followed by UV-A", "value": "almost all the cells seemed to die by apoptosis"}, {"measurement": "Number of colonies (high cell density areas formed in semisolid medium 2 weeks after treatment)", "setting": "Jurkat cells [3]; 1.00 μM MOP/10 min UV-A", "value": "0.8 ± 2.0"}, {"measurement": "number of experiments when colonies were formed/total number of experiments", "setting": "Jurkat cells [3]; 1.00 μM MOP/10 min UV-A", "value": "1/6"}]}, {"smiles": "NCC(=O)CCC(=O)O", "note": "[ALA, 5-aminolevulinic acid]", "values": [{"measurement": "killing of CD4+ T-cells, ALA plus UVA versus 8-MOP plus UVA", "setting": "[4]", "value": "much more effectively than 8-MOP plus UVA"}, {"measurement": "ALA-induced PpIX production, proliferative versus normal resting T-cells", "setting": "[5]", "value": "about 15 fold"}, {"measurement": "toxic effects after single intravenous injection", "setting": "rats; rat, in vivo, iv, 250 mg/kg", "value": "No observable toxic effects"}, {"measurement": "LD50", "setting": "rats; rats, single dose of oral or intraperitoneal administration", "value": "2,500 mg/kg body weight"}, {"measurement": "Jurkat cells killed", "setting": "[6]", "value": "More than 95%"}, {"measurement": "killing of CD8+ T-cells, ALA plus UVA versus 8-MOP plus UVA", "setting": "[7]", "value": "much more effectively than 8-MOP plus UVA"}, {"measurement": "most common side effects", "setting": "humans", "value": "nausea, vomiting and a transient rise in liver enzymes"}, {"measurement": "LD50", "setting": "mice; mice, single dose of oral or intraperitoneal administration", "value": "2,500 mg/kg body weight"}, {"measurement": "toxic effects after single intravenous injection", "setting": "mice; mouse, in vivo, iv, 500 mg/kg", "value": "No observable toxic effects"}, {"measurement": "dark cytotoxic effect on leukocytes", "setting": "[8]", "value": "no significant dark cytotoxic effect"}]}, {"smiles": "CCCCCCOC(=O)CCC(=O)CN", "note": "[HAL, hexyl 5-amino-4-oxopentanoate]", "values": [{"measurement": "Cell proliferation, evaluated by MTS assay", "setting": "[1]; HAL 4 h, 10 or 20 s blue light or 5 or 10 min UV-A", "value": "decrease in a concentration-dependent manner"}, {"measurement": "Dark toxicity (MTS assay)", "setting": "[1]; HAL up to 11.00 μM", "value": "no indication for dark toxicities"}, {"measurement": "HAL concentration sufficient to decrease cell proliferation to minimum after light exposure", "setting": "[1]; UV-A 5 or 10 min", "value": 5.00, "unit": "µM"}, {"measurement": "Cell appearance 20 hours after treatment", "setting": "Jurkat cells [2]; 1.55 μM HAL, 10 min UV-A, sample to sample variations", "value": "mostly apoptotic + some alive, or; also recorded: mostly necrotic + some apoptotic*"}, {"measurement": "apoptotic bodies, twenty hours following treatment", "setting": "Jurkat cells [2]; 5.00 μM HAL and 10 min UV-A irradiation", "value": "no apoptotic bodies could be seen"}, {"measurement": "Cell appearance 20 hours after treatment", "setting": "Jurkat cells [2]; 5.00 μM HAL, 10 s UV-A", "value": "apoptotic + alive (similar"}, {"measurement": "Cell appearance 20 hours after treatment", "setting": "Jurkat cells [2]; 5.00 μM HAL, 10 s blue light", "value": "mostly apoptotic + some alive"}, {"measurement": "Cell appearance 20 hours after treatment", "setting": "Jurkat cells [2]; 5.00 μM HAL, 10 min UV-A", "value": "only necrotic, no apoptotic"}, {"measurement": "Number of colonies (high cell density areas formed in semisolid medium 2 weeks after treatment)", "setting": "Jurkat cells [3]; 5.00 μM HAL/10 min UV-A", "value": 0}, {"measurement": "Number of colonies (high cell density areas formed in semisolid medium 2 weeks after treatment)", "setting": "Jurkat cells [3]; 7.40 μM HAL/10 s blue light", "value": "4.5 ± 5.6"}, {"measurement": "number of experiments when colonies were formed/total number of experiments", "setting": "Jurkat cells [3]; 7.40 μM HAL/10 s blue light", "value": "4/6"}]}]}
